# Results taken from patent US20220281930A1, “COMPOSITIONS AND METHODS FOR THE TREATMENT OF PATHOLOGICAL PAIN AND ITCH” (DUKE UNIVERSITY, priority 2019, published 2022).
# Assays:
# KCC2 mRNA [1] = test: KCC2 mRNA RT-qPCR in rat primary cortical neurons; type: cell-based; conditions: rat primary cortical neurons; dose-dependent, FIG. 10
# Procedure: Total RNA was isolated from cultured cell samples using Directzol RNA miniprep kit (ZymoResearch). The protocol includes DNAse digestion to exclude genomic DNA from preparations. Total RNA (1 μg) was reverse transcribed using oligo primers (dT) and SuperScriptIII first-strand synthesis kit (Invitrogen). Gene expression was assessed by quantitative real-time PCR using 2×SYBR Green Master Mix (Qiagen) and a three-step cycling protocol (anneal at 60° C./elongate at 72° C., denature at 95° C.). Specificity of primers was verified by dissociation/melting curve for the amplicons when using SYBR Green as a detector. All reactions were performed in triplicates. The amount of target messenger RNA (mRNA) in the experimental group relative to that in the control was determined from the resulting fluorescence and threshold values (Ct) using the ΔΔCt method. βIII-tubulin was used as housekeeping gene. oligodT-initiated reverse transcription of 1 μg total RNA, DNA-se treated, was subjected to RT-qPCR using primers specific for KCC2 for rat and KCC2 for human sequences, normalized for neuronal βIII-tubulin, as previously described (Yeo et al., 2009, J Neurosci 29:14652-14662). For cultured neurons, total RNA was extracted from pelleted cells, and for spinal cord tissue it was extracted from microdissected lumbar spinal cord dorsal horn.
# KCC2 mRNA [2] = test: KCC2 mRNA in differentiated N2a cells transfected with δ-cat constructs; type: cell-based, mouse; conditions: δ-cat construct vs control transfection
# From the text: (§1) Plasmid containing human δ-catenin (CTNND2, NM_001288717) open reading frame was obtained from GeneCopeia (EX-A4285-M02) and cloned into pCMV-ENTER vector (Origene PS100001). Site-directed mutagenesis using Phusion DNA Polymerase enzyme (Thermofisher F549L) in conjunction with complementary primers bearing the specific mutation were used to generate the S276A […] mutation S276A. PCR was followed by Dpn1 enzyme digestion to remove parental plasmid DNA. All constructs were verified by sequencing. pCS-CMV-tdTomato plasmid was obtained from Addgene (cat. #30530).
# Total RNA was isolated from cultured cell samples using Directzol RNA miniprep kit (ZymoResearch). The protocol includes DNAse digestion to exclude genomic DNA from preparations. […] Gene expression was assessed by quantitative real-time PCR using 2×SYBR Green Master Mix (Qiagen) and a three-step cycling protocol (anneal at 60° C./elongate at 72° C., denature at 95° C.). […] The amount of target messenger RNA (mRNA) in the experimental group relative to that in the control was determined from the resulting fluorescence and threshold values (Ct) using the ΔΔCt method. βIII-tubulin was used as housekeeping gene.
# Next, the question of whether δ-cat, when expressed as a spinal transgene in sensory relay neurons, will facilitate analgesia in nerve constriction injury was assessed. […]
# nerve injury pain = test: Nerve constriction injury (PSNL) pain model, mechanical withdrawal; type: in vivo, mouse; conditions: AAV9-huSyn, 5×10^9 viral genomes i.t; vs tdTomato control; to d18
# Procedure: For pain-related behavior, mechanical allodynia was assessed with von Frey filaments (Ugo Basile, Italy). The mice were placed on a 5×5-mm wire-mesh grid floor in individual compartments to avoid visual stimulation and allowed to adapt for 0.5 h prior to the von Frey test. The von Frey filament was then applied to the middle of the plantar surface of the hind paw with 5 g force. The withdrawal responses following the hind paw stimulation were measured at least three times, and the mechanical allodynia, which was defined as an increase in the number of withdrawal responses to the stimulation, was compared.
# Thus, in vivo, KP functions as an analgesic when administered systemically in injury-related pain models.
# Next, whether the analgesic effects of KP were mediated centrally at the spinal cord level was assessed.
# Mechanical withdrawal was measured thresholds after nerve constriction injury (PSNL) (FIG. 12B and FIG. 12C). […] Thus, δ-cat(S276A) spinal transgenesis via AAV9 is sufficient to evoke analgesia after nerve constriction injury, to lesser degree also with δ-cat(WT). Importantly, δ-cat(S276A) spinal transgenesis was accompanied by increased expression of KCC2 in the SCDH. […] Moreover, our discovery points toward a genetically-encoded approach that can be developed for translation into clinical use as an alternative or complement to KP-related small molecules.
# KCC2 mRNA [3] = test: KCC2 mRNA RT-qPCR in microdissected spinal cord dorsal horn; type: in vivo, mouse; conditions: AAV9 i.t; vs tdTomato control
# Procedure: oligodT-initiated reverse transcription of 1 μg total RNA, DNA-se treated, was subjected to RT-qPCR using primers specific for KCC2 for rat and KCC2 for human sequences, normalized for neuronal βIII-tubulin, as previously described (Yeo et al., 2009, J Neurosci 29:14652-14662). For cultured neurons, total RNA was extracted from pelleted cells, and for spinal cord tissue it was extracted from microdissected lumbar spinal cord dorsal horn.
# With the aforementioned findings and in view of the SCDH as the likely site of analgesic action of KP (Coull et al., 2003, Nature 424:938-942; Gagnon et al., 2013, Nat Med 19:1524-1528), SCDH KCC2 expression and function in nerve injury and response to KP was assessed. […] To measure KCC2 mRNA, SCDH Rexed-layers I-II were microdissected with laser capture followed by RT-qPCR. SCDH KCC2 protein expression was measured morphometrically after KCC2 immunolabeling using SCDH laminae I-II as the region-of-interest (FIG. 5B).
# δ-cat = test: Nuclear transfer of transfected human δ-cat in N2a cells; type: cell-based, mouse; conditions: mutation vs δ-cat(WT), without KP
# From the text: as §1
# To investigate the relevance of δ-cat residue S276, N2a neural cells were studied because these cells transfect at higher efficiency than primary cortical neurons. In our cultures, N2a cells expressed neuronal ßIII-tubulin in elongated processes as determined by immune-labeling as an indicator of their neuronal differentiation. […] This increase in nuclear transfer was very similar to the trafficking we recorded in primary cortical neurons, thus validating the cell line. […] Of note, there was no increase of nuclear transfer of δ-cat(S276A) upon KP treatment (FIG. 8C and FIG. 8D).
Molecule,KCC2 mRNA expression (KCC2 mRNA [1]),KCC2 mRNA expression (KCC2 mRNA [2]),mechanical withdrawal thresholds after PSNL (nerve injury pain),KCC2 mRNA in microdissected SCDH (KCC2 mRNA [3]),nuclear transfer of the transfected construct (δ-cat)
O=C1[C@H](Cc2ccc(O)cc2)N2C(=O)CCN(C(=O)NCc3ccccc3)[C@H]2CN1Cc1cccc2ccccc12 [ICG-001],significantly decreases,–,–,–,–
"δ-cat(S276A): human δ-catenin S276A mutant transgene (SEQ ID NO:32), as plasmid or AAV9 vector driven by human synapsin promoter",–,slightly elevated,Significantly less sensitization,significantly increased,increases nuclear transfer
